Source: ChEMBL document CHEMBL1129417, “Glucose transport-enhancing and hypoglycemic activity of 2-methyl-2-phenoxy-3-phenylpropanoic acids” (1996)

Legend:
Format in all cases: functional
[1] = system: Mus musculus; test: compound was tested in vivo for hypoglycemic activity in 6-8 week old C57BL/6J ob/ob mouse at 10 mg/kg
[2] = organism: Rattus norvegicus; test: Compound was tested for inhibition of gluconeogenesis
[3] = system: 3T3-L1; test: In vitro measurements 2-Deoxyglucose (2DG) uptake in vehicle treated 3T3-L1 adipocytes at 100 uM dose.
[4] = system: Mus musculus; test: compound was tested in vivo for hypoglycemic activity expressed as Glucose lowering relative to positive control in 6-8 week old C57BL/6J ob/ob mouse at 50 mg/kg
[5] = organism: Rattus norvegicus; test: Inhibition of gluconeogenesis in rat
[6] = system: 3T3-L1; test: In vitro measurements of 2-Deoxyglucose (2DG) uptake in vehicle treated 3T3-L1 adipocytes at 60 uM dose.
[7] = system: L6; test: compound was evaluated for their acute effects in vitro by measuring 2-Deoxyglucose (2DG) uptake in vehicle treated L6 […] at 60 uM dose.
[8] = system: Mus musculus; test: compound was tested in vivo for hypoglycemic activity expressed as Glucose lowering relative to positive control in 6-8 week old C57BL/6J ob/ob mouse at 25 mg/kg
[9] = system: 3T3-L1; test: Acute effects in vitro by measuring 2-deoxyglucose (2DG) uptake in vehicle treated 3T3-L1 adipocytes at 30 uM dose.
[10] = system: 3T3-L1; test: compound was evaluated for their acute effects in vitro by measuring 2-Deoxyglucose (2DG) uptake in vehicle treated 3T3-L1 adipocytes at concentration of 10 micro M
[11] = system: 3T3-L1; test: compound was evaluated for their acute effects in vitro by measuring 2-Deoxyglucose (2DG) uptake in vehicle treated 3T3-L1 adipocytes at concentration of 3 micro M
[12] = system: 3T3-L1; test: compound was evaluated for their acute effects in vitro by measuring 2-Deoxyglucose (2DG) uptake in vehicle treated 3T3-L1 adipocytes at concentration of 30 micro M
[13] = system: Mus musculus; test: compound was tested in vivo for hypoglycemic activity expressed as Glucose lowering relative to positive control in 6-8 week old C57BL/6J ob/ob mouse at 0.5 mg/kg
[14] = system: Mus musculus; test: In vivo hypoglycemic activity expressed as glucose lowering relative to positive control in 6-8 week old C57BL/6J ob/ob mouse at 10 mg/kg
[15] = system: Mus musculus; test: In vivo hypoglycemic activity expressed as glucose lowering relative to positive control in 6-8 week old C57BL/6J ob/ob mouse at 1 mg/kg.
[16] = system: Mus musculus; test: In vivo hypoglycemic activity expressed as glucose lowering relative to positive control in 6-8 week old C57BL/6J ob/ob mouse at 5 mg/kg.
[17] = system: 3T3-L1; test: Acute effects in vitro by measuring 2-deoxyglucose (2DG) uptake in vehicle treated 3T3-L1 adipocytes at 10 uM dose.
[18] = system: 3T3-L1; test: compound was evaluated for their acute effects in vitro by measuring 2-Deoxyglucose (2DG) uptake in vehicle treated 3T3-L1 adipocytes at 1 uM dose.
[19] = system: 3T3-L1; test: In vitro by measurements of 2-Deoxyglucose (2DG) uptake in vehicle treated 3T3-L1 adipocytes at 3 uM dose.
[20] = system: 3T3-L1; test: compound was evaluated for their acute effects in vitro by measuring 2-Deoxyglucose (2DG) uptake in vehicle treated 3T3-L1 adipocytes at 100 uM dose.
[21] = system: Mus musculus; test: compound was tested in vivo for hypoglycemic activity in 6-8 week old C57BL/6J ob/ob mouse at 50 mg/kg
[22] = Rattus norvegicus, read-out: ED50

**Q.** How did the Hypoglycemic activity ([1]; 10 mg/kg) turn out when CC(C)c1ccc(C(F)C(C)(Cc2ccc(Cl)cc2)C(=O)O)cc1 (stereo in doubt; 95) was run?
**A.** 50%

**Q.** What about the ED50 [2, 22] of the same compound?
**A.** 10 mg/kg

**Q.** For CC(C)c1ccc(OC(Cc2ccc3ccccc3c2)C(=O)O)cc1 (stereo not drawn), which Basal uptake [3] is on record?
**A.** 143%

**Q.** What about the Hypoglycemic activity [4] of the same compound?
**A.** 45%

**Q.** What about the ED50 [5, 22] of the same compound?
**A.** 50 mg/kg

**Q.** With O=C(O)C(Cc1ccc(Cl)cc1)Oc1ccccc1 (stereo not drawn) as the compound, how does the Basal uptake [6] read?
**A.** 100%

**Q.** And the Basal uptake [7]?
**A.** 86%

**Q.** What about the Hypoglycemic activity [8] of the same compound?
**A.** <0%

**Q.** What about the ED50 [5, 22] of the same compound?
**A.** > 25 mg/kg

**Q.** How did the Hypoglycemic activity ([1]; 10 mg/kg) turn out when CC(C)c1ccc(C(F)C(C)(Cc2ccc(Cl)cc2)C(=O)O)cc1 (stereo in doubt; 94) was run?
**A.** 63%

**Q.** What about the ED50 [2] of the same compound?
**A.** 10 mg/kg

**Q.** What does the source list for CCCc1ccc(CC(C)(Oc2ccc(C(C)C)cc2)C(=O)[O-])cc1.[Na+] (stereo not drawn)?
**A.** Basal uptake [9]: 97%; Basal uptake [6]: 282%; Basal uptake [10]: 100%; Basal uptake [11]: 103%; Basal uptake [12]: 233%; Hypoglycemic activity [13]: 69%; Hypoglycemic activity [14]: 113%; Hypoglycemic activity [15]: 70%; Hypoglycemic activity [16]: 134%; ED50 [5, 22]: 0.5 mg/kg

**Q.** Which results are given for CC(C)c1ccc(OC(C)(Cc2ccc(C(F)(F)F)cc2)C(=O)O)cc1 (stereo not drawn)?
**A.** Basal uptake [7]: 103%; Hypoglycemic activity [16]: 65%; ED50 [5, 22]: < 5 mg/kg

**Q.** Which Basal uptake [17] does the source give for CC(C)c1ccc(OC(C)(Cc2ccccc2-c2ccccc2)C(=O)[O-])cc1.[Na+] (stereo not drawn) here?
**A.** 228%

**Q.** And the Basal uptake [18]?
**A.** 97%

**Q.** And the Basal uptake [9]?
**A.** 167%

**Q.** What about the Basal uptake [19] of the same compound?
**A.** 148%

**Q.** What about the Hypoglycemic activity [14] of the same compound?
**A.** 54%

**Q.** And the ED50 [5, 22]?
**A.** 10 mg/kg

**Q.** Which Basal uptake [20] does the source give for C1CCC(NC2CCCCC2)CC1.CC(C)c1ccc(OC(Cc2cccc(Cl)c2)C(=O)O)cc1 (stereo not drawn) here?
**A.** 160%

**Q.** And the Hypoglycemic activity [21]?
**A.** 32%

**Q.** And the ED50 [2, 22]?
**A.** > 50 mg/kg

**Q.** What does the source list for CCc1cccc(CC(C)(Oc2ccc(C(C)C)cc2)C(=O)[N-]S(=O)(=O)C(F)(F)F)c1.[Na+] (stereo not drawn)?
**A.** Hypoglycemic activity [1]: 43%; ED50 [2, 22]: > 10 mg/kg

**Q.** Which Basal uptake [17] does the source give for CCC(c1ccc(Cl)cc1)C(C)(Oc1ccc(C(C)C)cc1)C(=O)O (stereo in doubt; 87) here?
**A.** 96%

**Q.** What about the Basal uptake [18] of the same compound?
**A.** 98%

**Q.** What about the Basal uptake [9] of the same compound?
**A.** 109%

**Q.** What about the Hypoglycemic activity ([14]; 10 mg/kg) of the same compound?
**A.** 32%

**Q.** And the ED50 [5]?
**A.** >10 mg/kg

**Q.** For CCc1ccc(CC(C)(Oc2ccc(C(=O)c3ccccc3)cc2)C(=O)O)cc1 (stereo not drawn), which Hypoglycemic activity [13] is on record?
**A.** 60%

**Q.** And the Hypoglycemic activity [14]?
**A.** 107%

**Q.** What about the Hypoglycemic activity [15] of the same compound?
**A.** 65%

**Q.** What about the Hypoglycemic activity [16] of the same compound?
**A.** 108%

**Q.** And the ED50 [5, 22]?
**A.** 0.5 mg/kg

**Q.** Which results are given for Cc1ccccc1S(=O)(=O)[N-]CC(C)(Cc1ccc(Cl)cc1)Oc1ccc(C(C)C)cc1.[Na+] (stereo not drawn)?
**A.** Hypoglycemic activity [1]: 7%; ED50 [2, 22]: 10 mg/kg

**Q.** Which results are given for COc1ccc(CC(Oc2ccc(C(C)C)cc2)C(=O)O)cc1 (stereo not drawn)?
**A.** Basal uptake [3]: 127%; Hypoglycemic activity [4]: <0%; ED50 [5, 22]: > 50 mg/kg

**Q.** How did the Basal uptake [17] turn out when CCC(c1ccc(Cl)cc1)C(C)(Oc1ccc(C(C)C)cc1)C(=O)O (stereo in doubt; 86) was run?
**A.** 91%

**Q.** What about the Basal uptake [18] of the same compound?
**A.** 97%

**Q.** And the Basal uptake [9]?
**A.** 95%

**Q.** And the Hypoglycemic activity ([14]; 10 mg/kg)?
**A.** 71%

**Q.** And the ED50 [5, 22]?
**A.** < 10 mg/kg

**Q.** For CC(C)c1ccc(OC(Cc2ccc(Cl)cc2Cl)C(=O)O)cc1 (stereo not drawn), which Basal uptake [3] is on record?
**A.** 222%

**Q.** What about the Hypoglycemic activity [14] of the same compound?
**A.** 30%

**Q.** What about the Hypoglycemic activity [4] of the same compound?
**A.** 70%

**Q.** What about the Hypoglycemic activity [16] of the same compound?
**A.** 45%

**Q.** What about the ED50 [5, 22] of the same compound?
**A.** 10 mg/kg

**Q.** Which results are given for CC(C)c1ccc(OC(C(=O)O)c2ccc(Cl)cc2)cc1 (stereo not drawn)?
**A.** Basal uptake [3]: 248%; Hypoglycemic activity [4]: <0%; ED50 [5, 22]: > 50 mg/kg
